From US5952308A, “Mineral absorption promoting agent” (Pola Chemical Industries Inc., priority 1991, dated 1999)

What was measured:
hemoglobin = assay: Mineral absorption promoting effect test on animals (hemoglobin increase, iron utilization); assay type: in vivo, Wistar male rats
Method: Wistar male rats (body weight:80 g) were feeded for 3 weeks, giving iron-free feed, ferrous sulfate-added feed (iron: 12 ppm), or ferrous sulfate and oligogalacturonic acid-added feed (iron: 12 ppm, powder oligogalacturonic acid obtained in the preparation method 1=0.5%).
During the period, hemoglobin concentration in blood was measured every 7 days, and utilization ratios of iron in each of these feeds were compared, using hemoglobin increase (hemoglobin concentration in blood×blood volume) as an index.
Net increase of hemoglobin (number of tested rats = 10); unit: […]

Wistar rat = assay: Acute toxicity test of oligogalacturonic acid; conditions: in vivo, po
Method: Acute toxicity test of oligogalacturonic acid
Animal: Wistar rat: One group comprising
10 each of male and female rats
Specimen: 50% oligogalacturonic acid aqueous
Oral forced administration
Dosage: Group 1 10 ml/kg

Substance	Net increase of hemoglobin, 7th day (hemoglobin; 7th day, feed with iron 12 ppm, n = 10 rats, ± SD)	Net increase of hemoglobin, 14th day (hemoglobin; 14th day, feed with iron 12 ppm, n = 10 rats, ± SD)	Net increase of hemoglobin, 21st day (hemoglobin; 21st day, feed with iron 12 ppm, n = 10 rats, ± SD)	Net increase of hemoglobin, at start (hemoglobin; at start, feed with iron 12 ppm, n = 10 rats, ± SD)	Utilization ratio (hemoglobin; iron in feed, 3 weeks, index hemoglobin increase (hemoglobin concentration in blood×blood volume))	autopsy after 14 days (Wistar rat)
ferrous sulfate	0.2 ± 0.1 g	0.3 ± 0.1 g	0.4 ± 0.2 g	0 g	33%	–
oligogalacturonic acid	–	–	–	–	–	no abnormal sign
